Patent EP0182152B1, “Antitumor antibiotics (LL-E33288 Complex)” (AMERICAN CYANAMID COMPANY, priority 1984, dated 1986)

Key:
melanotic melanoma B16 = test: Melanotic Melanoma B16 Test; assay type: in vivo, BDF1 mice
Description: (§1) Certain in vivo testing systems and protocols have been developed by the National Cancer Institute for testing compounds to determine their suitability as anti-neoplastic agents. These have been reported in "Cancer Chemotherapy Reports", Part III, Vol. 3, No. 2 (1972), Geran, et al. These protocols have established standardized screening tests which are generally followed in the field of testing for antitumor agents. Of these systems, lymphocytic leukemia P388, melanotic melanoma B16, L1210 leukemia and colon 26 adenocarcinoma are particularly significant to the present invention. These neoplasms are utilized for testing as transplantable tumors in mice. Generally, significant anti-tumor activity, shown in these protocols by a percentage increase of mean survival times of the treated animals (T) over the control animals (C), is indicative of similar results in human leukemias and solid tumors.
The animals used were BDF1 mice, all of the same sex, weighing a minimum of 17 g and all within a 3 g weight range. There are normally 6 animals per test group. A 1 g portion of melanotic melanoma β16 tumor was homogenized in 10 ml of cold balanced salt solution and a 0.5 ml aliquot of the homogenate was implanted intraperitoneally into each of the test mice. LL-E33288 antibiotics were tested in the β16 system both as the individual β1-Br and γ1-Br components and as a complex of all components (Bromo-complex). The test compounds were administered intraperitioneally on days 1 through 9 (relative to tumor inoculation) at various doses. The mice were weighed and survivors recorded on a regular basis for 60 days. The median survival time and the ratio of survival time for treated (T)/control (C) animals were calculated. The positive control compounds were Cisplatin or Adriamycin. The results of this test appear in Table V. If T/C X 100 (%) is 125 or over, the tested compound is considered to have significant anti-tumor activity.
(§2) In the same manner, the following iodo-components were tested for antineoplastic activity.

[1] = system: lymphocytic leukemia L1210; test: Lymphocytic Leukemia L1210 Test; assay type: in vivo, BDF1 mice
Description: as §1
The animals used were BDF1 mice, all of one sex, weighing a minimum of 17 g and all within a 3 g weight range. There were 6 mice in each test group and 18 in control groups. The tumor transplant was by intraperitoneal injection of 0.5 ml of lymphocytic leukemia L1210 at a concentration of 10^5 cells per mouse. LL-E33288 antibiotics were tested in the L1210 system both as the individual β1-Br component and as a complex of all components (Bromo-complex). The test compounds were administered on days 1, 5 and 9 or days 1 through 9 (relative to tumor inoculation) at various doses. The mice were weighed and survivors recorded on a regular basis for 30 days. The median survival time and the ratio of survival time for treated (T)/control (C) animals were calculated. The positive control compound was 1,4-dihydroxy-5,8-bis[[2-(2-hydroxyethylamino)ethyl]amino]anthraquinone dihydrochloride or Cisplatin given intraperitoneally at the indicated dose. If T/C X 100 (%) is 125 or over, the tested compound is considered to have significant anti-tumor activity.
as §2

[2] = system: lymphocytic leukemia P388; test: Lymphocytic Leukemia P388 Test; assay type: in vivo, BDF1 mice
Description: as §1
The animals used were BDF1 mice, all of one sex, weighing a minimum of 17 g and all within a 3 g weight range. There were 5 or 6 mice per test group. The tumor transplant was by intraperitoneal injection of 0.5 ml of dilute ascitic fluid containing 10^6 cells of lymphocytic leukemia P388. LL-E33288 antibiotics were tested in the P388 system both as the individual β1-Br and […] components and as a complex of all components (Bromo-complex). The test compounds were administered intrapertioneally at a volume of 0.5 ml in 0.2% Klucel in normal saline on days 1, 5 and 9 (relative to tumor inoculation) at the indicated doses. The mice were weighed and the survivors recorded on a regular basis for 30 days. The median survival time and the ratio of survival time for treated (T)/control (C) animals were calculated. The positive control compound was Cisplatin given as an intraperitioneal injection in 0.5 ml of 0.2% Klucel on days 1, 5 and 9 at the indicated doses.
If T/C X 100 (%) is 125 or over, the tested compound is considered to have significant anti-tumor activity.
as §2

Colon 26 tumor = test: Colon 26 Adenocarcinoma Test; assay type: in vivo, CD2F1 female mice
Description: as §1
The animals used were CD2F1 female mice weighing a minimum of 17 g and all within a 3 g weight range. There were 5 or 6 mice per test group with three groups of 5 or 6 animals used as untreated controls for each test. The tumor implant was by intraperitoneal (or subcutaneous) injection of 0.5 ml of a 2% Colon 26 tumor brei in Eagle's MEM medium containing antibiotics. LL-E33288 antibiotics were tested in the Colon 26 system as a complex (Bromo-complex) of all components. The test compounds were administered intraperitoneally on days 1, 5 and 9 (relative to tumor implant doses). The mice were weighed and deaths recorded on a regular basis for 30 days. The median survival times for treated (T)/control (C) animals were calculated. The positive control compound was Cisplatin. If T/C X 100 (%) is 130 or over, the tested compound is considered to have significant anti-tumor activity.
as §2

[3] = Table X, dose .00007 mg/kg, control value not given
[4] = Table X, dose .00015 mg/kg, control value not given
[5] = Table X, dose .0003 mg/kg, control value not given
[6] = Table X, dose .0006 mg/kg, control value not given
[7] = Table X, dose .00125 mg/kg, control value not given
[8] = Table X, dose .0025 mg/kg, control value not given
[9] = Table XI, dose .0006 mg/kg, control 9 days
[10] = Table XI, dose .0012 mg/kg, control 9 days
[11] = Table XI, dose .0025 mg/kg, control 9 days
[12] = Table XI, dose .005 mg/kg, control 9 days
[13] = Table XI, dose .01 mg/kg, control 9 days
[14] = Table IX, Test 1, dose .00015 mg/kg, control 13 days
[15] = Table IX, Test 1, dose .0003 mg/kg, control 13 days
[16] = Table IX, Test 1, dose .0006 mg/kg, control 13 days
[17] = Table IX, Test 1, dose .00125 mg/kg, control 13 days
[18] = Table IX, Test 1, dose .0025 mg/kg, control 13 days
[19] = Table IX, Test 1, dose .005 mg/kg, control 13 days
[20] = Table IX, Test 2, dose - .00125 mg/kg, control 11 days
[21] = Table IX, Test 2, dose .00015 mg/kg, control 11 days
[22] = Table IX, Test 2, dose .0003 mg/kg, control 11 days
[23] = Table IX, Test 2, dose .0006 mg/kg, control 11 days
[24] = Table IX, Test 2, dose .0025 mg/kg, control 11 days
[25] = Table IX, Test 2, dose .005 mg/kg, control 11 days
[26] = Table IX, Test 2, dose .01 mg/kg, control 11 days
[27] = Table XII, dose ,0006 mg/kg, control 18.5 days
[28] = Table XII, dose .00007 mg/kg, control 18.5 days
[29] = Table XII, dose .00015 mg/kg, control 18.5 days
[30] = Table XII, dose .0003 mg/kg, control 18.5 days
[31] = Table XII, dose .00125 mg/kg, control 18.5 days
[32] = Table XII, dose .0025 mg/kg, control 18.5 days
[33] = Table XII, dose .005 mg/kg, control 18.5 days
[34] = Table XII, dose .01 mg/kg, control 18.5 days
[35] = Table V, i.p. days 1 through 9, dose 0.05 mg/kg, control 16 days
[36] = Table V, i.p. days 1 through 9, dose 0.1 mg/kg, control 16 days
[37] = Table V, i.p. days 1 through 9, dose 0.2 mg/kg, control 16 days
[38] = Table V, i.p. days 1 through 9, dose 0.4 mg/kg, control 16 days
[39] = Table VI, i.p., dose 1.25 mg/kg, control 8.3 days
[40] = Table VI, i.p., dose 2.5 mg/kg, control 8.3 days
[41] = Table VI, i.p., dose 5 mg/kg, control 8.3 days
[42] = Table IV, i.p. days 1, 5 and 9, dose 0.06 mg/kg, control 10.6 days
[43] = Table IV, i.p. days 1, 5 and 9, dose 0.06 mg/kg, control 12.4 days
[44] = Table IV, i.p. days 1, 5 and 9, dose 0.25 mg/kg, control 10.6 days
[45] = Table IV, i.p. days 1, 5 and 9, dose 0.4 mg/kg, control 12.4 days
[46] = Table IV, i.p. days 1, 5 and 9, dose 1.0 mg/kg, control 10.6 days
[47] = Table IV, i.p. days 1, 5 and 9, dose 1.0 mg/kg, control 12.4 days
[48] = Table VII, i.p. days 1, 5 and 9, dose 0.25 mg/kg, control 18.6 days
[49] = Table VII, i.p. days 1, 5 and 9, dose 0.5 mg/kg, control 18.6 days
[50] = Table VII, i.p. days 1, 5 and 9, dose 1 mg/kg, control 18.6 days
[51] = Table XII, dose 0.5 mg/kg, control 18.5 days
[52] = Table XII, dose 1 mg/kg, control 18.5 days
[53] = Table XII, dose 2 mg/kg, control 18.5 days

## CCN[C@H]1CO[C@@H](O[C@H]2[C@H](O[C@H]3C#CC=CC#C[C@@]4(O)CC(=O)C(NC(=O)OC)=C3/C4=C\CSSSC)O[C@H](C)[C@@H](NO[C@H]3C[C@H](O)[C@H](SC(=O)c4c(C)c(I)c(O[C@@H]5O[C@@H](C)[C@H](O)[C@@H](OC)[C@H]5O)c(OC)c4OC)[C@@H](C)O3)[C@@H]2O)C[C@@H]1OC (stereo in doubt) [LL-E33288γ1-I]
Melanotic melanoma B16; [3]
  Median Survival: 30.5 days
  T/C x 100: 179%
Melanotic melanoma B16; [4]
  Median Survival: 33.5 days
  T/C x 100: 197%
Melanotic melanoma B16; [5]
  Median Survival: 35.5 days
  T/C x 100: 209%
Melanotic melanoma B16; [6]
  Median Survival: 42.5 days
  T/C x 100: 250%
Melanotic melanoma B16; [7]
  Median Survival: 27 days
  T/C x 100: 159%
Melanotic melanoma B16; [8]
  Median Survival: 26.5 days
  T/C x 100: 156%
[1]; [9]
  Median Survival: 10 days
  T/C x 100: 111%
[1]; [10]
  Median Survival: 10.5 days
  T/C x 100: 117%
[1]; [11]
  Median Survival: 11 days
  T/C x 100: 122%
[1]; [12]
  Median Survival: 14 days
  T/C x 100: 156%
[1]; [13]
  Median Survival: 8 days
  T/C x 100: 89%
[2]; [14]
  Median Survival: 15 days
  T/C x 100: 115%
[2]; [15]
  Median Survival: 15.5 days
  T/C x 100: 119%
[2]; [16]
  Median Survival: 18 days
  T/C x 100: 138%
[2]; [17]
  Median Survival: 18.5 days
  T/C x 100: 142%
[2]; [18]
  Median Survival: 22 days
  T/C x 100: 169%
[2]; [19]
  Median Survival: >25.5 days
  T/C x 100: >196%
[2]; [20]
  Median Survival: 18.5 days
  T/C x 100: 168%
[2]; [21]
  Median Survival: 14 days
  T/C x 100: 127%
[2]; [22]
  Median Survival: 14 days
  T/C x 100: 127%
[2]; [23]
  Median Survival: 16 days
  T/C x 100: 145%
[2]; [24]
  Median Survival: 22.5 days
  T/C x 100: 205%
[2]; [25]
  Median Survival: 18 days
  T/C x 100: 164%
[2]; [26]
  Median Survival: 11 days
  T/C x 100: 100%
Colon 26 tumor; [27]
  Median Survival: 23.5 days
  T/C x 100: 127%
Colon 26 tumor; [28]
  Median Survival: 17 days
  T/C x 100: 92%
Colon 26 tumor; [29]
  Median Survival: 17.5 days
  T/C x 100: 95%
Colon 26 tumor; [30]
  Median Survival: 20 days
  T/C x 100: 108%
Colon 26 tumor; [31]
  Median Survival: 22.5 days
  T/C x 100: 122%
Colon 26 tumor; [32]
  Median Survival: 27 days
  T/C x 100: 146%
Colon 26 tumor; [33]
  Median Survival: 25.5 days
  T/C x 100: 138%
Colon 26 tumor; [34]
  Median Survival: 11 days
  T/C x 100: 59%

## N.N.[Cl][Pt][Cl] [Cisplatin, reference compound]
Melanotic melanoma B16; [35]
  Median Survival: 21.5 days
  T/C x 100: 134%
Melanotic melanoma B16; [36]
  Median Survival: 23 days
  T/C x 100: 144%
Melanotic melanoma B16; [37]
  Median Survival: 25 days
  T/C x 100: 156%
Melanotic melanoma B16; [38]
  Median Survival: 25 days
  T/C x 100: 156%
[1]; [39]
  Median Survival: 11 days
  T/C x 100: 133%
[1]; [40]
  Median Survival: 12 days
  T/C x 100: 145%
[1]; [41]
  Median Survival: 7.5 days
  T/C x 100: 90%
[2]; [42]
  Median Survival: 14.5 days
  T/C x 100: 137%
[2]; [43]
  Median Survival: 15 days
  T/C x 100: 121%
[2]; [44]
  Median Survival: 15 days
  T/C x 100: 142%
[2]; [45]
  Median Survival: 19 days
  T/C x 100: 153%
[2]; [46]
  Median Survival: 21.5 days
  T/C x 100: 203%
[2]; [47]
  Median Survival: 25.5 days
  T/C x 100: 206%
Colon 26 tumor; [48]
  Median Survival: 37.5 days
  T/C x 100: 202%
Colon 26 tumor; [49]
  Median Survival: 38.5 days
  T/C x 100: 207%
Colon 26 tumor; [50]
  Median Survival: 29 days
  T/C x 100: 156%
Colon 26 tumor; [51]
  Median Survival: 23.5 days
  T/C x 100: 127%
Colon 26 tumor; [52]
  Median Survival: 27.5 days
  T/C x 100: 149%
Colon 26 tumor; [53]
  Median Survival: 15.5 days
  T/C x 100: 84%
